Source: the supplement of paper PMC4977894
Where a name gives a salt, the structure may show the parent alone. ± gives the standard deviation of the averaged measurements.

Key:
[1] = system: Homo sapiens (human subject panel, olfactory perception); test: perceived odor familiarity rating (rating 0-100); higher = more familiar
Experimental: (§1)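 Human olfactory psychophysics. 55 healthy subjects (after excluding 6 low performers) sniffed 1 mL of each odorant diluted in paraffin oil (vials, two dilutions per molecule, 20 molecules presented twice). Each subject rated intensity, pleasantness and familiarity on a 0-100 slider, starting at 50 and required to move. Ratings were given only when the subject reported detecting a smell; per-subject ratings are averaged over subjects.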

[2] = system: Homo sapiens (human subject panel, olfactory perception); test: perceived odor pleasantness rating (rating 0-100); higher = more pleasant
Experimental: as §1

[3] = system: Homo sapiens (human subject panel, olfactory perception); test: perceived odor intensity rating (rating 0-100); higher = stronger perceived smell
Experimental: as §1

[4] = odor dilution in paraffin oil: 1/1,000
[5] = odor dilution in paraffin oil: 1/100,000
[6] = odor dilution in paraffin oil: 1/10,000,000
[7] = odor dilution in paraffin oil: 1/10

Compound	perceived odor familiarity rating [1, 4]	perceived odor familiarity rating [1, 5]	perceived odor pleasantness rating [2, 4]	perceived odor pleasantness rating [2, 5]	perceived odor intensity rating [3, 4]	perceived odor intensity rating [3, 5]	perceived odor familiarity rating [1, 6]	perceived odor pleasantness rating [2, 6]	perceived odor intensity rating [3, 6]	perceived odor familiarity rating [1, 7]	perceived odor pleasantness rating [2, 7]	perceived odor intensity rating [3, 7]
CCc1nccnc1C(C)=O [2-Acetyl-3-ethylpyrazine]	57.2 ± 29	52.4 ± 30	25.7 ± 23	41.2 ± 23	79.4 ± 20	46.3 ± 30						
CC(=O)c1ccc(C)o1 [2-Acetyl-5-methylfuran]	38.2 ± 28	38.2 ± 29	36.5 ± 25	47.4 ± 27	71.5 ± 22	25.2 ± 31						
CC(=O)c1nccs1 [2-Acetylthiazole]	69.3 ± 28	58.3 ± 31	46.3 ± 31	47.7 ± 30	80 ± 20	76.3 ± 17						
CC(=O)c1cccs1 [2-Acetylthiophene]		42.4 ± 30		46 ± 23		43.9 ± 29	44.9 ± 30	52.4 ± 25	25.3 ± 28			
CC(=O)c1ccccc1N [2-Aminoacetophenone]	54.8 ± 30	52.7 ± 30	57.5 ± 27	58.4 ± 26	71.9 ± 24	66.7 ± 27						
CCOc1nccs1 [2-Ethoxythiazole]	45.2 ± 30	42.5 ± 28	24.3 ± 23	37.6 ± 25	79.9 ± 19	52.7 ± 30						
CCc1nccnc1C [2-Ethyl-3-methylpyrazine]	55.7 ± 32	60 ± 31	31.2 ± 26	43.9 ± 29	82.1 ± 17	70.5 ± 21						
CCc1nc(C)cs1 [2-Ethyl-4-methylthiazole]	43.6 ± 30	45.6 ± 29	16.6 ± 19	33.6 ± 24	87 ± 15	73.1 ± 21						
CCC1(O)C2(C)CCC(C2)C1(C)C (centres undefined) [2-Ethylfenchol]	58.9 ± 33	47.7 ± 35	37.2 ± 27	45.5 ± 25	73.6 ± 27	39.1 ± 34						
CCc1ccco1 [2-Ethylfuran]	45.4 ± 31	31.4 ± 29	34.4 ± 24	38.3 ± 30	52.4 ± 31	42.2 ± 35						
CCCCC(CC)C(=O)O (centres undefined) [2-Ethylhexanoic acid]	47.7 ± 28		38.1 ± 22		47.8 ± 31					46.6 ± 29	28.4 ± 21	73.7 ± 23
O=CSCc1ccco1 [2-Furanmethanethiol formate]		54.5 ± 36		21.5 ± 23		87.3 ± 14	58.5 ± 35	24.3 ± 28	86.9 ± 14			
CC(=O)c1ccccc1O [2-Hydroxyacetophenone]	49.6 ± 33	43.8 ± 29	29.5 ± 25	39.2 ± 24	80.7 ± 17	48.5 ± 30						
CC(C)Cc1nccs1 [2-Isobutylthiazole]		46.3 ± 29		41.4 ± 26		61.3 ± 26	32.4 ± 31	46.4 ± 23	31.2 ± 31			
CC(C)c1ccccc1O [2-Isopropylphenol]	49 ± 34	36 ± 29	28.8 ± 22	44.4 ± 20	84.3 ± 14	38.8 ± 30						
CC(O)C(C)S (centres undefined) [2-Mercapto-3-butanol]		41.6 ± 32		40 ± 26		45.9 ± 32	37 ± 26	50.2 ± 23	30.2 ± 30			
COc1cncc(C(C)C)n1 [2-Methoxy-3(5 or 6)-isopropylpyrazine]	50 ± 32	45.3 ± 28	27.3 ± 26	33.3 ± 22	80.8 ± 23	58 ± 30						

Compound	perceived odor familiarity rating [1, 4]	perceived odor familiarity rating [1, 5]	perceived odor pleasantness rating [2, 4]	perceived odor pleasantness rating [2, 5]	perceived odor intensity rating [3, 4]	perceived odor intensity rating [3, 5]	perceived odor familiarity rating [1, 6]	perceived odor pleasantness rating [2, 6]	perceived odor intensity rating [3, 6]	perceived odor familiarity rating [1, 7]	perceived odor pleasantness rating [2, 7]	perceived odor intensity rating [3, 7]
COc1nccnc1C [2-Methoxy-3-methylpyrazine]	63 ± 31	64.6 ± 31	34.3 ± 34	52.6 ± 31	87.9 ± 13	79.5 ± 17						
COc1cc(C)ccc1O [2-Methoxy-4-methylphenol (replicate)]		51.8 ± 31		39.5 ± 24		63 ± 28	38.9 ± 26	45.5 ± 20	33 ± 31			
COc1cc(C)ccc1O [2-Methoxy-4-methylphenol]		53.6 ± 30		39.6 ± 22		60.2 ± 27	37.5 ± 32	43.9 ± 23	27 ± 29			
COc1ccccc1OC(C)=O [2-Methoxyphenyl acetate]	46.3 ± 30	45.5 ± 30	37.4 ± 27	45.5 ± 27	74.2 ± 20	56 ± 30						
COc1cnccn1 [2-Methoxypyrazine]	51.9 ± 34	52.6 ± 30	37.3 ± 30	54.8 ± 26	68.3 ± 29	41.6 ± 30						
COc1ccccc1S [2-Methoxythiophenol]		40.6 ± 34		15.7 ± 23		88.2 ± 13	37.6 ± 30	52.7 ± 24	25.8 ± 22			
CCC(C)CO (centres undefined) [2-Methyl-1-butanol (replicate)]	47.1 ± 32	37.1 ± 31	28 ± 26	44.4 ± 23	78.8 ± 18	36.4 ± 31						
CCC(C)CO (centres undefined) [2-Methyl-1-butanol]	43.7 ± 29	43.3 ± 31	38.4 ± 24	48.6 ± 21	56.2 ± 33	32.2 ± 26						
CSc1ccoc1C [2-Methyl-3-methylthiofuran]		48.1 ± 28		24.5 ± 19		66.8 ± 24	33 ± 24	39.4 ± 20	31.4 ± 28			
CCCC1CCOC(C)S1 (centres undefined) [2-Methyl-4-propyl-1,3-oxathiane]		53.6 ± 33		38.8 ± 30		68.7 ± 25	27.9 ± 27	51 ± 26	22.7 ± 30			
CC1CCCCC1=O (centres undefined) [2-Methylcyclohexanone]	49.8 ± 32	33.4 ± 30	31.6 ± 25	50.9 ± 22	74.6 ± 25	12.6 ± 18						
Cc1ccco1 [2-Methylfuran]		36.9 ± 27		52.6 ± 21		25.1 ± 29	38.5 ± 24	39.4 ± 22	28.9 ± 27			
CCCC(C)C(=O)O (centres undefined) [2-Methylpentanoic acid]		37.4 ± 31		50 ± 25		31.7 ± 30	38 ± 29	37.9 ± 24	35.6 ± 33			
CCCCCCCC(C)=O [2-Nonanone]	52.3 ± 32	39.1 ± 31	60.3 ± 23	49.6 ± 23	58 ± 25	29.4 ± 30						
CC(C)C(=O)OCCOc1ccccc1 [2-Phenoxyethyl isobutyrate]	30.3 ± 31		55.1 ± 26		27.5 ± 29					44 ± 30	43.8 ± 22	58.7 ± 26
CC=C(C=O)c1ccccc1 [2-Phenyl-2-butenal]		30.9 ± 30		36.6 ± 25		19.8 ± 24	34.5 ± 24	57.5 ± 21	20.1 ± 29			
S=C=NCCc1ccccc1 [2-Phenylethyl isothiocyanate]	47 ± 31	41.3 ± 28	21.3 ± 21	37.7 ± 26	75.5 ± 20	38.2 ± 30						
